24 compounds from US20240092784A1, “CONDENSED HETEROCYCLIC COMPOUND” (NISSAN CHEMICAL CORPORATION, priority 2020, published 2024) can be followed below.

Each structure is given as a SMILES string. Structures can show the parent of a compound that is named as a salt. Where two headings read alike, the source gives them in different places.

The experiment deals with human SPR (Homo sapiens (Human), UniProt P35270). Kind of experiment: Evaluation Example 2: Measurement of human SPR inhibitory activity (seven concentrations, sepiapterin absorbance at 420 nm). The experiment is classed as biochemical. A digest of the protocol:
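Reactions ran 240 min at room temperature in 100 mM Tris-HCl pH 7.5 with 0.01% BSA. They contained tag-cleaved, E. coli-expressed full-length human SPR (diluted to 150 ng/mL), seven compound concentrations from 0.14 to 100 nM, and sepiapterin/NADPH added as a 120 μM/160 μM solution. Inhibition was calculated from sepiapterin absorbance at 420 nm.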

Setting [1] is: Evaluation Example 2, seven concentrations 0.14 nM to 100 nM, 240 minutes at room temperature, read-out: IC50.
[2] abbreviates: sepiapterin absorbance, Table 41, read-out: concentration at 50% inhibition of human SPR (IC50).

human SPR, sequence (P35270 whole entry): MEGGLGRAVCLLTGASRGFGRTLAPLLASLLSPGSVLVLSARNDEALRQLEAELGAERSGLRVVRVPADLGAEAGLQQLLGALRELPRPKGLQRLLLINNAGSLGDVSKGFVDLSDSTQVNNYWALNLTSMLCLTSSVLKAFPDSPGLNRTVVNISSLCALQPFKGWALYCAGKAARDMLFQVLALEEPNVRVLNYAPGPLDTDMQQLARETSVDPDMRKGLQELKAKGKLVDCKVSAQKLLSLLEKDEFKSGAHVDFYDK

Consider `CC(C)(C)Cn1c(=O)c(C(=O)NC2CC2)c(O)n2nc(Nc3cnc(C(C)(C)O)cn3)cc12` [Synthesis Example 349, N-Cyclopropyl-7-hydroxy-2-((5-(2-hydroxypropan-2-yl)pyrazin-2-yl)amino)-4-neopentyl-5-oxo-4,5-dihydropyrazolo[1,5-a]pyrimidine-6-carboxamide], for which the IC50 under setting [1] came to 1.36 nM.
On to `CC(C)(C)Cn1c(=O)c(C(=O)NC2CC2)c(O)n2nc(Nc3cnc(C(=O)N4CCOCC4)cn3)cc12` [Synthesis Example 335, N-Cyclopropyl-7-hydroxy-2-((5-(morpholine-4-carbonyl)pyrazin-2-yl)amino)-4-neopentyl-5-oxo-4,5-dihydropyrazolo[1,5-a]pyrimidine-6-carboxamide], for which the IC50 under setting [1] was found to be 0.73 nM.
Turning to `CC(C)Cn1c(=O)c(C(=O)NC2CC2)c(O)n2ncc(C(=O)NCC3CC(F)(F)C3)c12` [Synthesis Example 222, N6-Cyclopropyl-N3-((3,3-difluorocyclobutyl)methyl)-7-hydroxy-4-isobutyl-5-oxo-4,5-dihydropyrazolo[1,5-a]pyrimidine-3,6-dicarboxamide], the IC50 under setting [1] was 0.79 nM.
Take `CC(C)Cn1c(=O)c(C(=O)NC2CC2)c(O)n2ncc(/C=C/C(=O)N3CCC(C)(C)C3)c12` [compound 479, (E)-N-Cyclopropyl-3-(3-(3,3-dimethylpyrrolidin-1-yl)-3-oxoprop-1-en-1-yl)-7-hydroxy-4-isobutyl-5-oxo-4,5-dihydropyrazolo[1,5-a]pyrimidine-6-carboxamide]: under setting [1], the IC50 came to 1.05 nM.
As for `Cc1nn2c(O)c(C(=O)NC3CC3)c(=O)n(CC(C)C)c2c1/C=C/C(=O)N(C)Cc1cnccn1` [Synthesis Example 636, (E)-N-Cyclopropyl-7-hydroxy-4-isobutyl-2-methyl-3-(3-(methyl(pyrazin-2-ylmethyl)amino)-3-oxoprop-1-en-1-yl)-5-oxo-4,5-dihydropyrazolo[1,5-a]pyrimidine-6-carboxamide], the IC50 under setting [1] came out at 1.47 nM.
Take `Cc1nn2c(O)c(C(=O)NC3CC3)c(=O)n(CC(C)C)c2c1/C=C/C(=O)N1C[C@@H](F)[C@H](F)C1` (single isomer, unassigned; isomer a) [Synthesis Example 755, N-Cyclopropyl-3-((E)-3-(trans-3,4-difluoropyrrolidin-1-yl)-3-oxoprop-1-en-1-yl)-7-hydroxy-4-isobutyl-2-methyl-5-oxo-4,5-dihydropyrazolo[1,5-a]pyrimidine-6-carboxamide (Isomer A)]: the IC50 under setting [2] came to 0.61 nM.
Still for that read-out and setting: the same measure for `Cc1nn2c(O)c(C(=O)NC3CC3)c(=O)n(CC(C)C)c2c1/C=C/C(=O)N1CCOc2ccncc21` [Synthesis Example 695, (E)-N-Cyclopropyl-3-(3-(2,3-dihydro-4H-pyrido[4,3-b][1,4]oxazin-4-yl)-3-oxoprop-1-en-1-yl)-7-hydroxy-4-isobutyl-2-methyl-5-oxo-4,5-dihydropyrazolo[1,5-a]pyrimidine-6-carboxamide]: 1.3 nM.
`CC(C)Cn1c(=O)c(C(=O)NC2CC2)c(O)n2ncc(/C=C/C(=O)NC(C)(C)C3CC3)c12` [compound 493]: the IC50 under setting [1] was 0.94 nM.
`CCN1CCC2(CCCN2C(=O)/C=C/c2c(C)nn3c(O)c(C(=O)NC4CC4)c(=O)n(CC(C)C)c23)CC1` [Synthesis Example 667, (E)-N-Cyclopropyl-3-(3-(8-ethyl-1,8-diazaspiro[4.5]decan-1-yl)-3-oxoprop-1-en-1-yl)-7-hydroxy-4-isobutyl-2-methyl-5-oxo-4,5-dihydropyrazolo[1,5-a]pyrimidine-6-carboxamide]: the IC50 under setting [1] turned out to be 0.94 nM.
On the same count and under the same terms, for `CC(C)Cn1c(=O)c(C(=O)NC2CC2)c(O)n2ncc(/C=C/C3=NCC(C)(C)O3)c12` [Synthesis Example 266, (E)-N-Cyclopropyl-3-(2-(5,5-dimethyl-4,5-dihydrooxazol-2-yl)vinyl)-7-hydroxy-4-isobutyl-5-oxo-4,5-dihydropyrazolo[1,5-a]pyrimidine-6-carboxamide] the value was 1.58 nM.
With `Cc1nn2c(O)c(C(=O)NC3CC3)c(=O)n(CC(C)C)c2c1/C=C/C(=O)N1CCOC[C@@H]1c1ccccc1` [Synthesis Example 643, (S,E)-N-Cyclopropyl-7-hydroxy-4-isobutyl-2-methyl-5-oxo-3-(3-oxo-3-(3-phenylmorpholino)prop-1-en-1-yl)-4,5-dihydropyrazolo[1,5-a]pyrimidine-6-carboxamide], the IC50 under setting [1] was 1.37 nM.
On the same count and under the same terms, for `Cn1ccnc1Nc1cc2n(CC(C)(C)C)c(=O)c(C(=O)NC3CC3)c(O)n2n1` [Synthesis Example 357, N-Cyclopropyl-7-hydroxy-2-((1-methyl-1H-imidazol-2-yl)amino)-4-neopentyl-5-oxo-4,5-dihydropyrazolo[1,5-a]pyrimidine-6-carboxamide] the value was 1.5 nM; for `CC(C)Cn1c(=O)c(C(=O)NC2CC2)c(O)n2ncc(/C=C/C(=O)N3[C@H](C)CC[C@@H]3C)c12` [compound 592, N-Cyclopropyl-3-((E)-3-(cis-2,5-dimethylpyrrolidin-1-yl)-3-oxoprop-1-en-1-yl)-7-hydroxy-4-isobutyl-5-oxo-4,5-dihydropyrazolo[1,5-a]pyrimidine-6-carboxamide], 1.46 nM.
Same read-out and setting: the same measure for `CC[C@@H]1CCCN1C(=O)/C=C/c1cnn2c(O)c(C(=O)NC3CC3)c(=O)n(CC(C)C)c12` [compound 562, (R,E)-N-Cyclopropyl-3-(3-(2-ethylpyrrolidin-1-yl)-3-oxoprop-1-en-1-yl)-7-hydroxy-4-isobutyl-5-oxo-4,5-dihydropyrazolo[1,5-a]pyrimidine-6-carboxamide]: 1.31 nM.
Turning to `CC(C)Cn1c(=O)c(C(=O)NC2CC2)c(O)n2ncc(/C=C/C(=O)N3CCc4ccccc43)c12` [Synthesis Example 725, (E)-N-Cyclopropyl-7-hydroxy-3-(3-(indolin-1-yl)-3-oxoprop-1-en-1-yl)-4-isobutyl-5-oxo-4,5-dihydropyrazolo[1,5-a]pyrimidine-6-carboxamide], under setting [2], the IC50 turned out to be 3.61 nM.
With `CC(C)Cn1c(=O)c(C(=O)NC2CC2)c(O)n2nc(NC(=O)OC(C)(C)C)c(/C=C/C(=O)N3CCC(F)(F)CC3)c12` [Synthesis Example 413, Tert-butyl (E)-(6-(cyclopropylcarbamoyl)-3-(3-(4,4-difluoropiperidin-1-yl)-3-oxoprop-1-en-1-yl)-7-hydroxy-4-isobutyl-5-oxo-4,5-dihydropyrazolo[1,5-a]pyrimidin-2-yl)carbamate], the IC50 under setting [1] was 1.32 nM.
As to `Cc1nn2c(O)c(C(=O)NC3CC3)c(=O)n(CC(C)C)c2c1/C=C/C(=O)N(C)CC(C)(C)O` [Synthesis Example 686, (E)-N-Cyclopropyl-7-hydroxy-3-(3-((2-hydroxy-2-methylpropyl)(methyl)amino)-3-oxoprop-1-en-1-yl)-4-isobutyl-2-methyl-5-oxo-4,5-dihydropyrazolo[1,5-a]pyrimidine-6-carboxamide], under setting [2], the IC50 is 1 nM.
For `CC(C)Cn1c(=O)c(C(=O)NC2CC2)c(O)n2ncc(/C=C/C(=O)N3C4CCCC3COC4)c12` [compound 542, (E)-3-(3-(3-Oxa-9-azabicyclo[3.3.1]nonan-9-yl)-3-oxoprop-1-en-1-yl)-N-cyclopropyl-7-hydroxy-4-isobutyl-5-oxo-4,5-dihydropyrazolo[1,5-a]pyrimidine-6-carboxamide], the IC50 under setting [1] came to 0.78 nM.
Consider `CO[C@H]1CCN(C(=O)/C=C/c2c(C)nn3c(O)c(C(=O)NC4CC4)c(=O)n(CC(C)C)c23)C1` [compound 577, (S,E)-N-Cyclopropyl-7-hydroxy-4-isobutyl-3-(3-(3-methoxypyrrolidin-1-yl)-3-oxoprop-1-en-1-yl)-2-methyl-5-oxo-4,5-dihydropyrazolo[1,5-a]pyrimidine-6-carboxamide], for which, under setting [1], the IC50 amounted to 1.1 nM.
Consider `CC(C)Cn1c(=O)c(C(=O)NC2CC2)c(O)n2ncc(/C=C/C(=O)N3CC[C@H](O)C3)c12` [compound 501, (S,E)-N-Cyclopropyl-7-hydroxy-3-(3-(3-hydroxypyrrolidin-1-yl)-3-oxoprop-1-en-1-yl)-4-isobutyl-5-oxo-4,5-dihydropyrazolo[1,5-a]pyrimidine-6-carboxamide], for which the IC50 under setting [1] worked out at 0.71 nM.
Regarding `CC(C)Cn1c(=O)c(C(=O)N[C@@H](C)C(F)(F)F)c(O)n2ncc(/C=C/C(=O)N3CCOCC3)c12` [compound 545, (S,E)-7-Hydroxy-4-isobutyl-3-(3-morpholino-3-oxoprop-1-en-1-yl)-5-oxo-N-(1,1,1-trifluoropropan-2-yl)-4,5-dihydropyrazolo[1,5-a]pyrimidine-6-carboxamide], under setting [1], the IC50 amounted to 0.66 nM.
For the compound `CCc1nn2c(O)c(C(=O)NC3CC3)c(=O)n(CC(C)C)c2c1/C=C/C(=O)N1[C@@H](C)COC[C@@H]1C` [Synthesis Example 626, N-Cyclopropyl-3-((E)-3-((3S,5S)-3,5-dimethylmorpholino)-3-oxoprop-1-en-1-yl)-2-ethyl-7-hydroxy-4-isobutyl-5-oxo-4,5-dihydropyrazolo[1,5-a]pyrimidine-6-carboxamide], the IC50 under setting [1] was determined as 0.87 nM.
Still for that read-out and setting: for `CC(C)Cn1c(=O)c(C(=O)NC2CC2)c(O)n2nc(N)c(/C=C/C(C)(C)C)c12` [Synthesis Example 439, (E)-2-Amino-N-cyclopropyl-3-(3,3-dimethylbut-1-en-1-yl)-7-hydroxy-4-isobutyl-5-oxo-4,5-dihydropyrazolo[1,5-a]pyrimidine-6-carboxamide hydrochloride] the value was 1.61 nM.
On to `CC(C)Cn1c(=O)c(C(=O)NC2CC2)c(O)n2ncc(C(=O)NCc3ccncc3)c12` [Synthesis Example 217, N6-Cyclopropyl-7-hydroxy-4-isobutyl-5-oxo-N3-(pyridin-4-ylmethyl)-4,5-dihydropyrazolo[1,5-a]pyrimidine-3,6-dicarboxamide], for which, under setting [1], the IC50 worked out at 0.69 nM.
